# Assay results: article PMC3337405 (Cancer Chemotherapy and Pharmacology, 2012)
# Several values for one entry are separate records, joined by “and”; a condition that tells them apart may be missing. Equal entries are not always repeated.
# What was measured:
# QT interval = conditions: ref 16 (AC220), 17 (MLN518), 18 (sorafenib); cited from earlier work
# QTcF interval = conditions: cited from earlier work
# [1] = Plasma pharmacokinetics, noncompartmental analysis
# Experimental: (§2) Blood samples for PK analysis were collected predose and 0.5, 1, 2, 3, 4, 8, 12, and 24 h post dose on days 1 and 3 at the same time as ECG assessments. […] Noncompartmental analysis (WinNonlin™ version 5.2, Pharsight, Sunnyvale, California) was performed to determine the following PK parameters: C max, T max, minimum (trough) plasma concentration over a dosing interval (C min), and AUC calculated using a trapezoidal method. For moxifloxacin, the AUC from time 0 to the last measurable concentration sampling time was calculated (AUC0–tlast).
# healthy volunteers [2] = experiment: Adverse events and discontinuations; type: in vivo, human
# Experimental: Electrocardiogram analysis was performed at a blinded central reading facility (ERT, East Bridgewater, NJ) in digital format, with paper tracings obtained and archived immediately on site. Vital signs were assessed daily. Clinical laboratory parameters were assessed at baseline and at the end of study. Self-reported adverse events were continuously recorded from the first study treatment (placebo, day −1) through the end of study on day 4.
# healthy volunteers [3] = experiment: Concentration–QT linear random-effects model; type: in vivo, human; conditions: for concentration versus QTcF slope: plasma concentration of the analyte after midostaurin dosing, day 3
# Excerpt: Baseline QTcF was included in the model as a covariate. […] This exploratory analysis was applied to both the change from the time-matched baseline and the change from time-averaged baseline.
# healthy volunteers [4] = experiment: Thorough QT/QTc study: QTcF change from baseline on day 3 (12-lead ECG); type: in vivo, human
# Excerpt: This study was a phase I, randomized, double-blind, placebo- and active-controlled, 3-way, parallel-group study conducted at a single center in the United States and approved by the Arkansas Research Medical Testing, LLC, Institutional Review Board. The design followed the recommendations of the International Conference on Harmonisation of Technical Requirements for Registration of Pharmaceuticals for Human Use (ICH) E14 guideline on “The Clinical Evaluation of QT/QTc Interval Prolongation and Proarrhythmic Potential for Non-Antiarrhythmic Drugs” [19]. As such, the trial included a concurrent positive control group and addressed intrinsic variability by conducting multiple ECGs at baseline and during the study. The study was conducted according to the ethical principles of the Declaration of Helsinki, and written informed consent was obtained from each subject during screening.
# The treatment regimen was selected to achieve maximal plasma exposure for QTc evaluation while minimizing the risks of excessive or prolonged exposure in healthy volunteers.
# The baseline comparison was from day −1 to day 3 at matched time points.
# The following hypothesis was tested to confirm that the study had sufficient assay sensitivity: [drawing 3] [drawing 4] where μmoxi(t) was the mean QTcF change from baseline observed following moxifloxacin 400 mg at time point t. If the null hypothesis was rejected, the study had sufficient sensitivity. The Simes method was used for the protection of an experiment-wise 5% type I error [22, 23]. With the Simes method, the original P values corresponding to 0.5, 1, 2, 3, and 4 h post baseline are ordered increasingly, that is, P 1 ≤ P 2 ≤ P 3 ≤ P 4 ≤ P 5. After the Simes correction, the P values were 5P 1, 5P 2/2, 5P 3/3, 5P 4/4, and P 5 respectively. If any of the 5 adjusted P values were <.05, assay sensitivity was claimed. Only the participants who completed all scheduled doses of study medication from day 1 to day 3 and had at least 1 ECG on day −1 (baseline) and at least 1 ECG on day 3 (time-matched day 3 data for the time-matched analysis) were included in the assay sensitivity test.
# Electrocardiogram measurements at each time point were calculated as an average of 3 separate ECG extractions or replicates. (Each extraction was the mean of 3 beats.) If fewer than 3 measurements were available, the available samples were averaged (i.e., a minimum of 1 measure was required). For each subject, the time-matched baseline value was subtracted from the QT/QTc intervals to determine the change from baseline in QT/QTc intervals for that subject. The 2 null hypotheses described above were tested in a linear mixed-effect model with a compound symmetry covariance structure. The model included the baseline measure as covariate and treatment, time, and the treatment-by-time interaction as fixed effects, where time was a categorical variable and subject was a random effect.
# The time-matched analysis was conducted on the QTcF change from the time-matched baseline as recommended by the ICH E14 guideline. Although modeling change from the time-matched baseline was the primary analysis, the change from the time-averaged baseline was also analyzed using the same model. For the averaged baseline, each triplicate ECG collection was averaged first, and then the averaged baseline was calculated based on all the averaged triplicate ECG and unscheduled ECGs.
# (§1) Standard triplicate 12-lead ECGs were obtained at 9 time points over 24 h at […] and at 2 time points on day 1. Electrocardiogram analysis was performed at a blinded central reading facility (ERT, East Bridgewater, NJ) in digital format, with paper tracings obtained and archived immediately on site. Vital signs were assessed daily. Clinical laboratory parameters were assessed at baseline and at the end of study. Self-reported adverse events were continuously recorded from the first study treatment (placebo, day −1) through the end of study on day 4.
# healthy volunteers [5] = experiment: Outlier analysis of QTc and other ECG parameters, ECG morphology; type: in vivo, human; conditions: for QTcB >30 ms, time-matched change from baseline, participants: text: 30- to 60-ms category
# Experimental: Outlier analysis for QTc was also exploratory because this study was not powered to detect individuals with genetic sensitivity to potential QT-prolonging drugs. The nonspecific outlier criterion was a change from baseline in QTc interval of 30–60 ms.
# as §1
# [6] = cited from earlier work
# [7] = human, in vivo
# Experimental: as §2
# [8] = moxifloxacin 400 mg, 1 h post dose on day 3
compound,measurement,setting,value
CNC(=O)c1cc(Oc2ccc(NC(=O)Nc3ccc(Cl)c(C(F)(F)F)c3)cc2)ccn1 [sorafenib],effect on QT interval in clinical trials,QT interval,induce prolongation of the QT interval
"COc1c(N2C[C@@H]3CCCN[C@@H]3C2)c(F)cc2c(=O)c(C(=O)O)cn(C3CC3)c12 [Moxifloxacin, reference compound]","mean slope estimates, concentration–QTc",QTcF interval; 5 other thorough QTc studies,2.5 ms per μg/mL and 2.4 ms per μg/mL and 3.3 ms per μg/mL and 3.5 ms per μg/mL and 4.3 ms per μg/mL
same,effect on QTc intervals,QTcF interval,prolong QTc intervals in a dose-dependent manner
same,expected effect on the QTcF interval,QTcF interval; previous studies,8 to 13 ms
same,Cmax,"[1]; human, plasma, oral, 400 mg, geometric mean, moxifloxacin 400 mg overencapsulated, day 3",2500 ng/mL
same,Cmax,"[1]; human, plasma, oral, 400 mg, mean, moxifloxacin 400 mg overencapsulated, day 3",2540 ng/mL
same,Cmax,"[1]; human, plasma, oral, 400 mg, median, moxifloxacin 400 mg overencapsulated, day 3",2460 ng/mL
same,Tmax,"[1]; human, plasma, oral, 400 mg, Tmax, median, moxifloxacin 400 mg overencapsulated, day 3",2.1 h
same,"Cmax, mean","[1]; moxifloxacin 400 mg overencapsulated, day 3",2544 ng/mL
same,"Discontinued, main cause Adverse event(s)",healthy volunteers [2]; randomized set,0 (0.0) no. (%)
same,"Discontinued, main cause Death",healthy volunteers [2]; randomized set,0 (0.0) no. (%)
same,Abdominal pain,"healthy volunteers [2]; safety set, all grade 1/2",0 (0.0) no. (%)
same,Arthralgia,"healthy volunteers [2]; safety set, all grade 1/2",0 (0.0) no. (%)
same,Diarrhea,"healthy volunteers [2]; safety set, all grade 1/2",1 (2.3) no. (%)
same,Dizziness,"healthy volunteers [2]; safety set, all grade 1/2",1 (2.3) no. (%)
same,Dry mouth,"healthy volunteers [2]; safety set, all grade 1/2",0 (0.0) no. (%)
same,Dysmenorrhea,"healthy volunteers [2]; safety set, all grade 1/2",0 (0.0) no. (%)
same,Dyspepsia,"healthy volunteers [2]; safety set, all grade 1/2",1 (2.3) no. (%)
same,Eructation,"healthy volunteers [2]; safety set, all grade 1/2",0 (0.0) no. (%)
same,Flatulence,"healthy volunteers [2]; safety set, all grade 1/2",1 (2.3) no. (%)
same,Flushing,"healthy volunteers [2]; safety set, all grade 1/2",0 (0.0) no. (%)
same,Headache,"healthy volunteers [2]; safety set, all grade 1/2",4 (9.1) no. (%)
same,Hiccups,"healthy volunteers [2]; safety set, all grade 1/2",0 (0.0) no. (%)
same,Hot flushes,"healthy volunteers [2]; safety set, all grade 1/2",0 (0.0) no. (%)
same,Nausea,"healthy volunteers [2]; safety set, all grade 1/2",5 (11.4) no. (%)
same,Pollakiuria,"healthy volunteers [2]; safety set, all grade 1/2",1 (2.3) no. (%)
same,Rash,"healthy volunteers [2]; safety set, all grade 1/2",1 (2.3) no. (%)
same,Salivary hypersecretion,"healthy volunteers [2]; safety set, all grade 1/2",0 (0.0) no. (%)
same,Sexually transmitted disease,"healthy volunteers [2]; safety set, all grade 1/2",0 (0.0) no. (%)
same,Vomiting,"healthy volunteers [2]; safety set, all grade 1/2",1 (2.3) no. (%)
same,Participants with adverse events,"healthy volunteers [2]; safety set, all grade 1/2, 4-day evaluation period",9 (20.5) no. (%)
same,Tachycardia,"healthy volunteers [2]; safety set, grade 1, midostaurin-arm cases occurred during placebo run-in (day −1)",0 (0.0) no. (%)
same,slope of QT change from baseline with increasing plasma concentration,"healthy volunteers [3]; moxifloxacin, QT",4.0
same,slope of QTcB change from baseline with increasing plasma concentration,"healthy volunteers [3]; moxifloxacin, QTcB",2.6
same,slope of QTcF change from baseline with increasing plasma concentration,"healthy volunteers [3]; moxifloxacin, QTcF",3.2 ms per μg/mL
same,upper limit of the 95% CI of QTcF prolongation from time-matched baseline,"healthy volunteers [4]; moxifloxacin 400 mg, 1 h post dose",14.9 ms
same,"lower bound of 95% CI, QTcF change from time-averaged baseline compared with placebo",healthy volunteers [4]; [8],7.6 ms
same,lower bound of the 1-sided 95% CI of QTcF prolongation from time-matched baseline,healthy volunteers [4]; [8],6.4 ms and > 5 ms
same,maximum mean QTcF change from time-averaged baseline compared with placebo,healthy volunteers [4]; [8],10.2 ms
same,maximum mean QTcF prolongation from time-matched baseline compared with placebo,"healthy volunteers [4]; moxifloxacin single 400-mg dose, 1 h post dose on day 3",10.7 ms
same,new U-wave abnormalities,healthy volunteers [5]; 12-lead ECG,1 case
same,new post baseline T-wave abnormalities,healthy volunteers [5]; 12-lead ECG,4 participants
same,"PR increase ≥25% and resultant PR >200 ms, participants",healthy volunteers [5]; safety set,0 no. (%)
same,"QRS increase ≥25% and resultant QRS >100 ms, participants",healthy volunteers [5]; safety set,0 no. (%)
same,"QTcB >60 ms, time-matched change from baseline, participants",healthy volunteers [5]; safety set,0 no. (%)
same,"QTcF >30 ms, time-matched change from baseline, participants",healthy volunteers [5]; safety set,0 no. (%)
same,"QTcF >60 ms, time-matched change from baseline, participants",healthy volunteers [5]; safety set,0 no. (%)
same,"QTcI >30 ms, time-matched change from baseline, participants",healthy volunteers [5]; safety set,0 no. (%)
same,"QTcI >60 ms, time-matched change from baseline, participants",healthy volunteers [5]; safety set,0 no. (%)
same,"RR decrease ≥25% and resultant RR <600 ms, participants",healthy volunteers [5]; safety set,0 no. (%)
same,"RR increase ≥25% and resultant RR >1,200 ms, participants",healthy volunteers [5]; safety set,0 no. (%)
same,"QTcB New >450 ms, participants","healthy volunteers [5]; safety set, post baseline, text: between 450 and 480 ms",1 (2.3%) no. (%)
same,"QTcB >30 ms, time-matched change from baseline, participants",healthy volunteers [5]; safety set,7 (15.9) no. (%)
same,"QTcB >30 ms, time-matched change from baseline, participants","healthy volunteers [5]; safety set, listed as moxifloxacin",7 (15.9%) no. (%)
same,Cmax previously reported,[6]; moxifloxacin,2830 ng/mL
CO[C@@H]1[C@H](N(C)C(=O)c2ccccc2)C[C@H]2O[C@]1(C)n1c3ccccc3c3c4c(c5c6ccccc6n2c5c31)C(=O)N[C@H]4O [CGP52421],Tmax,"[1]; human, plasma, oral, 75 mg, time of peak concentrations post dose, midostaurin dosing, days 1 and 3",3 to 4 h
same,AUC(0-t),"[1]; human, plasma, po, 75 mg",3510 ng·h/mL
same,Cmax,"[1]; human, plasma, po, 75 mg, mean (SD), Day 1 (single dose), midostaurin 75 mg oral, plasma",384 ng/mL
same,Cmax,"[1]; human, plasma, po, 75 mg, mean (SD), Day 3 (twice daily), midostaurin 75 mg oral, plasma",1250 ng/mL
same,Tmax,"[1]; human, plasma, po, 75 mg, Tmax, median (range), Day 1 (single dose), midostaurin 75 mg oral, plasma",4 h
same,Tmax,"[1]; human, plasma, po, 75 mg, Tmax, median (range), Day 3 (twice daily), midostaurin 75 mg oral, plasma",3.1 h
same,concentration versus QTcF slope,healthy volunteers [3],0.2
same,concentration versus QTcF slope,healthy volunteers [3]; listed as CPG52421,either negative or not statistically significant
same,concentration at steady state relative to midostaurin and CGP62221,"[6]; daily oral dosing of midostaurin, plasma",approximately seven
same,half-life,[6]; human participants,up to 1 month
same,treatment needed to reach the steady state,[6]; midostaurin dosing,21 to 28 days
CN(C(=O)c1ccccc1)[C@@H]1C[C@H]2O[C@@](C)([C@@H]1O)n1c3ccccc3c3c4c(c5c6ccccc6n2c5c31)C(=O)NC4 [CGP62221],time of peak concentrations post dose,[7],3 to 4 h
same,"AUC0-12h, mean (SD)","[7]; po, 75 mg",7848.2 (1579.9) ng * hour/mL
same,"AUC0-24h, mean (SD)","[7]; po, 75 mg",36 486.5 (9769.7) ng × hour/mL
